Assays:
Format in all cases: in vivo, human
[1] = tested on: patients with negative symptoms of schizophrenia; test: Study #1 (MIN-101C03): Calgary Depression Scale for Schizophrenia; details: Week 12 DB, ITT
Source text: Phase 2b Study #1 (also referred to herein as “MIN-101C03”) was a Phase 2b, double-blind (“DB”), placebo-controlled, randomized, multicenter 12-week study to evaluate the efficacy, safety, and tolerability of Roluperidone in patients ≥18 years to ≤60 years with negative symptoms of schizophrenia, followed by a 24-week open-label (“OL”) extension. The primary objective of the study was to evaluate the efficacy of Roluperidone compared to placebo in improving the negative symptoms of schizophrenia as measured by the change from Baseline in the PANSS negative factor score of the PSM (“PANSS PSM”) over 12 weeks of treatment.
The study consisted of a pretreatment screening period of up to 28 days (including washout), a 12-week, DB, placebo-controlled period, and a 24-week OL period. Eligible patients (who were symptomatically stable for at least 3 months and had scores of at least 20 on the PANSS negative subscale score) were randomized in a 1:1:1 ratio to receive oral Roluperidone (a modified-release, “MR”, formulation) 32 mg QD, Roluperidone 64 mg QD, or placebo for 12 weeks. […] During the 24-week, OL treatment extension period, patients who were initially randomized to Roluperidone 32 mg or 64 mg continued on the same dose, while patients who were initially randomized to placebo crossed over to Roluperidone 32 mg or 64 mg in a 1:1 ratio.

[2] = tested on: patients with negative symptoms of schizophrenia; test: Study #2 (MIN-101C07): Total Verbal Fluency; details: Week 12 DB, ITT
Source text: Study #2 (also referred to as “MIN101C07”) was a Phase 3, randomized, DB, placebo-controlled, parallel-group 12-week study to evaluate the efficacy and safety of Roluperidone in patients ≥18 years to ≤55 years with negative symptoms of schizophrenia, followed by a 40-week OL extension. The study consisted of a pretreatment screening period of up to 28 days (including an antipsychotic medication washout period), a 12-week, DB, placebo-controlled period, and a 40-week OL period. Eligible patients (with moderate to severe negative symptoms of schizophrenia and stable positive symptoms but without severe symptoms of suspiciousness, agitation, hostility, uncooperativeness, or poor impulse control) were randomized 1:1:1 to receive Roluperidone 32 mg QD, Roluperidone 64 mg QD (GR01/B formulation, see U.S. Pat. No. 11,464,744), or placebo, orally, for 12 weeks. […] During the 40-week OL treatment extension, patients who were initially randomized to Roluperidone 32 mg or 64 mg continued treatment with the same dose, while patients who were initially randomized to placebo crossed over to Roluperidone 32 mg or 64 mg in a 1:1 ratio.

[3] = tested on: patients with negative symptoms of schizophrenia; test: Integrated analysis (pooled ITT): rate of relapse and time to relapse
Description: “Time to relapse” in the DB period is defined as the number of days from Day 1 to the date of early trial termination due to relapse. […] Treatment differences in time to relapse in the DB period were analyzed using a Cox-regression model with treatment group and Baseline PANSS total score as covariates. For the analysis of the OL period, this analysis was repeated to analyze treatment differences in time to relapse in the study. For the OL period analysis, patients who were not observed to relapse in the study were censored on the date on which they ended the study. Kaplan-Meier plots of time to relapse in the DB period, OL period, and in the study were generated.
In some embodiments, for any of the methods disclosed herein, a relapse refers to a patient who is terminated early during treatment (or a study trial) due to worsening of psychosis or an adverse event or generalized symptom in Table 1.
The Efficacy data from Study Nos. 1 and 2 were pooled. The majority of patients in the pooled ITT population completed the DB period (502 patients overall, 66.3%), with similar rates in each treatment group (placebo: 69.8%, 32 mg Roluperidone: 65.3%, and 64 mg Roluperidone: 63.8%) (Table 12). The majority (62.7%) of those who completed the DB period entered the OL period. The most common reason for discontinuation during the DB period among patients overall was withdrawal of consent (15.6%), followed by adverse events (7.3%) and lack of efficacy (5.4%) (Table 12). […] Approximately twice as many patients in the Roluperidone groups (32 mg: 8.5%; 64 mg: 9.1%) discontinued due to adverse events compared with patients in the placebo group (4.3%). More patients in the placebo group discontinued due to lack of efficacy (6.7%) than in the Roluperidone groups (32 mg: 4.4%; 64 mg: 5.1%). The low number of patients who discontinued due to lack of efficacy or withdrawal of consent probably reflects a low level of worsening of positive symptoms.

[4] = Roluperidone Total (N = 502), DB period

1H-Isoindol-1-one,2-[ [1-[2-(4-fluorophenyl)-2-oxoethyl]-4-piperidinyl]methyl]-2,3-dihydro-, hydrochloride, hydrate (1:1:2) [Roluperidone]
Change from Baseline LS Mean: Calgary Depression Scale for Schizophrenia ([1]; 32 mg QD): −0.37
Effect Size vs Placebo: Calgary Depression Scale for Schizophrenia ([1]; 32 mg QD): 0.25
Change from Baseline LS Mean: Calgary Depression Scale for Schizophrenia ([1]; 64 mg QD): −0.71
Effect Size vs Placebo: Calgary Depression Scale for Schizophrenia ([1]; 64 mg QD): 0.46
Change from Baseline LS Mean: Total Verbal Fluency (sum of 3 trials) ([2]; 32 mg QD): 3.9
Effect Size (Cohen's d) vs Placebo: Total Verbal Fluency ([2]; 32 mg QD): 0.21
Change from Baseline LS Mean: Total Verbal Fluency (sum of 3 trials) ([2]; 64 mg QD): 1.7
Effect Size (Cohen's d) vs Placebo: Total Verbal Fluency ([2]; 64 mg QD): −0.10
Patients who experienced relapse (%) ([3]; 32 mg (N = 248), DB period): 8%
Patients who experienced relapse (number) ([3]; 32 mg (N = 248), DB period): 19
Mean number of days to relapse ([3]; 32 mg group, OL period): 234.8 days
Patients who experienced relapse (%) ([3]; 32 mg throughout, OL period): 7%
Patients who experienced relapse (number) ([3]; 32 mg throughout, OL period): 10
Days to relapse (Kaplan-Meier estimates), Mean ([3]; 32 mg, DB period): 128.3 days
Days to relapse (Kaplan-Meier estimates), Median ([3]; 32 mg, DB period): 137.0 days
Patients who experienced relapse (%) ([3]; 64 mg (N = 254), DB period): 6%
Patients who experienced relapse (number) ([3]; 64 mg (N = 254), DB period): 16
Mean number of days to relapse ([3]; 64 mg group, OL period): 188.1 days
Patients who experienced relapse (%) ([3]; 64 mg throughout, OL period): 8%
Patients who experienced relapse (number) ([3]; 64 mg throughout, OL period): 12
Days to relapse (Kaplan-Meier estimates), Mean ([3]; 64 mg, DB period): 81.4 days
Patients who experienced relapse (%) [3, 4]: 7%
Patients who experienced relapse (number) [3, 4]: 35
Days to relapse (Kaplan-Meier estimates), Mean ([3]; Roluperidone Total, DB period): 128.9 days
Days to relapse (Kaplan-Meier estimates), Median ([3]; Roluperidone Total, DB period): 137.0 days
Patients who experienced relapse (%) ([3]; placebo to 32 mg, OL period): 11%
Patients who experienced relapse (number) ([3]; placebo to 32 mg, OL period): 9
Patients who experienced relapse (%) ([3]; placebo to 64 mg, OL period): 1%
Patients who experienced relapse (number) ([3]; placebo to 64 mg, OL period): 1
Mean number of days to relapse ([3]; total placebo to Roluperidone group, OL period): 256.3 days

— US20230255953A1, “USE OF ROLUPERIDONE IN PREVENTING RELAPSE IN SCHIZOPHRENIA PATIENTS” (Minerva Neurosciences, Inc., priority 2022, published 2023)
